Columns and labels:
[1] = tested on: quinone reductase (QR), Hepa 1c1c7 cells; test: Quinone reductase (QR) induction in Hepa 1c1c7 cells; type: cell-based, murine
Excerpt: This test was used because the specific activity of QR rises concomitantly with other phase II enzymes in many animal tissues in response to various chemopreventive agents. The study included natural and synthetic B-ring substituted flavones, as well as biosynthetic precursor chalcones and flavanones.
Determination of Quinone Reductase Activity in Cell Cultures. To determine the potency of inducers, Hepa 1c1c7 murine hepatoma cells as described in the Gerhauser publication were placed in 96-well plates at a density of 1×10^4 cells/ml in 200 μl of medium. After a preincubation period of 24 hr, the media were decanted and 190 μl fresh media were added to each well. Ten (10) μl test agents dissolved in 10% DMSO (final concentration of DMSO is 0.5%) with a serial 2-fold dilutions were introduced to each well, and the plates were incubated for an additional 48 hours. Specific QR activity was determined by measuring the NADPH-dependent menadiol-mediated reduction of 3-(4, 5-dimethylthiazo-2-yl)-2,5-diphenyltetrazolium bromide to blue formazan formed per mg protein per minute. Protein was determined in an identical set of test plates by staining with crystal violet. Hepa 1c1c7 cells retain many characteristics of normal issues, particularly the capacity for carcinogen activation and metabolism. They are amenable to precise control of environmental, nutritional, and hormonal factors. […] Induction of QR activity was calculated by comparing the QR specific activity of agent-treated cells with that of solvent-treated cells, and a plot of ratio was generated. CD represents the concentration required to double QR induction. Chemopreventive index (CI) is an indexing value generated by comparing CD with IC50 (concentration for 50% inhibition of cell viability) values.
Induction of Quinone Reductase in Hepa 1c1c7 Cells. […] Modification of the B-ring of chalcones, flavanones, and flavones was hypothesized to induce torsion of the B-ring, and, therefor, simulate out-of-plane distortions characteristic of polycyclic aromatic hydrocarbons, such as DMBA. Induction of QR activity was calculated by comparing the QR specific activity of agent-treated cells with the QR specific activity of solvent-treated cells, and a plot of ratios was generated. CD represents the concentration required for a double fold of induction. CI (Chemopreventive Index) is a value obtained by comparing CD with IC50 (concentration for 50% inhibition of cell viability in […]).

[2] = tested on: Salmonella typhimurium strain TM677; test: Antimutagenic assay, DMBA-induced mutagenesis; type: cell-based; conditions: S. typhimurium TM677; listed as 4'-BF
Procedure: A dose and time dependent induction of two major detoxification isoforms of GST (α form and μ form) mediated by 4'-BF has been studied in H4IIE rat hepatoma cells. In order to determine a possible mechanism of induction, the QR mRNA expression was tested using a RT-PCR technique and the induction patterns using HepG2 cells transfected with QR-chloramphenical acetyltransferase plasmid constructs containing various portions of 5'-region of the QR gene were analyzed. The antimutagenic activity of 4'-BF was tested in an antimutagenic assay against DMBA-induced mutagenesis with Salmonella typhimurium strain TM677. The chemopreventive efficacy of 4'-BF also was evaluated in a DMBA-induced mammary tumor carcinogenesis model in Sprague Dawley rats.

GST Yb (μ class) = test: Western blot of GST Yb (μ-type) expression in H4IIE cells; type: cell-based, rat; conditions: for GST Yb (μ) induction: H4IIE cells
Procedure: Western Blot Analysis Glutathione S-transferase Expression. Cultured H4IIE rat hepatoma cells were treated with test agent with various concentrations or various time points. […] Cells were harvested using SDS lysis buffer (20 mM Tris-Cl, pH 6.8, containing 0.4% SDS (w/v), 4% glycerol, 0.24 M β-mercaptoethanol, and 0.5% bromphenol) and the lysates were boiled for 5 minutes, then stored at -20° C. An aliquot of lysate was used for protein determination using a bicichoninic acid protein assay kit with BSA as a standard. Equivalent amounts of protein were electrophoresed by SDS-PAGE on precast 12.5% Tris-glycine acrylamide gels (Novex, San Diego, Calif.), then transferred to polyvinylidene difluoride (PDVF) membranes. Nonspecific binding sites were blocked with 10% nonfat dry milk and blotting was performed with goat polyclonal antirat GSTYa (α class) IgG or antirat, GSTYb (μ class) IgG and analyzed by alkaline phosphatase-conjugated antigoat IgG secondary antibody (Oxford Biomed Research, Inc.) and quantified using an AP 20 Alkaline Phosphatase Kit detection system (Oxford Biomed Research, Inc.).
Induction of Expression of Glutathione S-transferase Ya (α-type) and Yb (μ-type) in Cell Cultures. […] To date, the superfamily of mammalian cytosolic GST isozymes has been defined genetically to consist of four classes; α, μ, π, and θ, which differ in tissue-specificexpression and distribution, as well as substrate specificity. […] Cultured H4IIE cells were treated either with 10 μM of 4'-BF (FIG. 7B) or sulforaphane for 0, 2, 4, 8, 16, 24, and 48 hours for a time-dependent study, or with 0.16, 0.8, 4, 10, 20, and 50 μM of 4'-BF (FIG. 7A) or sulforaphane for 24 hr for a dose-dependent study (FIG. 7A). The expressions of two major detoxification isoforms of GSTs (GST Ya: α-type, and GST Yb: μ-type) mediated by 4'-BF or sulforaphane were investigated in H4EII rat hepatoma cells using Western blotting technique.

## O=c1cc(-c2ccc(Br)cc2)oc2ccccc12 [4'-Bromoflavone]
[1]; Hepa 1c1c7 cells
  Cq: 0.15 µM
[1]; IC50/CD, 2880 min
  CI, chemoprevention index (IC50/CD): > 17000
[1]; Mus musculus, Hepa-1c1c7, 48 h, Hepa 1c1c7 cells, 48 h, read-out: CD, concentration to double the specific activity of QR
  EC (2-fold): 0.01 µM
[1]; compared to sulforaphane
  times more active than sulforaphane: about 40 times
[2]
  inhibition of DMBA-induced mutagenesis: strongly inhibited
GST Yb (μ class); 10 μM, 0-48 h
  maximum induction time, GST Yb: 16 to 24 h
GST Yb (μ class); 0.16-50 μM, 24 h
  maximum induction concentration, GST Yb: 10 to 20 µM
GST Yb (μ class)
  GST Yb (μ) induction: effectively induced
GST Yb (μ class); listed as 4'-BF
  GST Yb (μ) induction: induced by 4'-BF in a time, dose-dependent manner
